Measurements published in patent publication US20210346321A1, “PHARMACEUTICAL COMPOSITION CONTAINING ALKYL CARBAMOYL NAPHTHALENYLOXY OCTENOYL HYDROXYAMIDE PHOSPHATE, TARTRATE OR COMBINATION THEREOF, AND PREPARATION METHOD THEREFOR” (CRYSTALGENOMICS, INC., priority 2018, published 2021).
“Also recorded” adds a separate entry of the source. One block for each molecule: values may come before it.

Tests used:
Assay type in all cases: physicochemical
[1] = Evaluation of change in moisture content (Karl Fischer); settings: open state, room temperature (20 to 25° C., 50% or less), after 3 days versus initial
Description: (§1) In order to evaluate the stability of the compound according to the present invention, an alkylcarbamoyl naphthalenyloxy octenoyl hydroxyamide compound was used in Comparative Example 1, an alkyl carbamoyl naphthalenyloxy octenoyl hydroxyamide tartrate was used in Example 13 and alkylcarbamoyl naphthalenyloxy octenoyl hydroxyamide phosphate was used in Example 14. As alkylcarbamoyl naphthalenyloxy octenoyl hydroxyamide, (E)-N1-(3-(dimethylamino)propyl)-N8-hydroxy-2-((naphthalen-1-yloxy)methyl)-2-octenediamide compound was used. Evaluation of stability was conducted by observing the change with storage time under room temperature (20-25° C., 50% or less), long-term (25±2° C. and 60±5% RH), accelerated (40±2° C. and 75±5% RH) and severe (60±2° C.) conditions.
In order to evaluate the change in moisture content, the compounds according to Examples and Comparative Examples were stored in an open state at room temperature (20 to 25° C., 50% or less), and the change was measured by the difference between the initial moisture content and the moisture content after 3 days, and the results are shown in FIG. 4. Moisture content was measured according to the volumetric titration method among methods of determining the water content (Karl Fischer method) of the general test methods of the Korean Pharmacopoeia (measurement equipment: 701KF_Metrohm).

[2] = Evaluation of change in appearance on storage; settings: for change in appearance: open state storage, all conditions
Description: as §1
In order to evaluate the change in appearance of the compounds according to Comparative Examples and Examples, each compound was stored in an open state according to the conditions shown in Table 13 below, and then the change in appearance was observed.

[3] = Evaluation of change in content on storage (HPLC)
Description: as §1
In order to evaluate the change in the content of the compounds according to Examples, each compound was stored in an open state or in a polyethylene bottle packaging (silica gel added) to measure the change in content. For measurement of content, compounds of Comparative Examples and Examples were pretreated and then the solutions were tested according to the liquid chromatography method of the general test methods of the Korean Pharmacopoeia to determine the peak area of CG200745 (measurement equipment: HPLC LC-2030C_Shimadzu). The content standard is to contain CG200745 in an amount corresponding to 95.0-105.5% of the indicated amount according to the standards and test methods of the present applicant.
The results measured in the open state are shown in Table 14 below, and the results measured in the bottle packaging are shown in Table 15 below.

[4] = Comparison of the amount of change in related substances of the compounds; settings: for increase in the amount of related substances: open state at room temperature for 3 days
Method: In order to evaluate the amount of change in the related substances of Example 12, the composition of Example 12 was placed in an accelerated condition chamber ([…], 75%±5), and the amount of related substance produced was measured for 6 months. For the measurement of the amount of related substances produced, the composition of Example 12 was pretreated and then tested according to the liquid chromatography method of the general test method of the Korean Pharmacopoeia to determine peak areas of the produced related substances (individual related substance 0.2% or less, total related substances 1.0%, measuring equipment: HPLC LC-2030C_Shimadzu). In Table 12, the amount of related substances produced is expressed in %. In addition, FIG. 3 is a result of measuring the related substance at 28 minutes under the accelerated condition, and the reference value is 0.2%.
In order to evaluate the amount of change in related substances of the compounds according to Comparative Examples and Examples, each compound was stored in an open state at room temperature for 3 days, and then the amount of related substances produced was measured in the same manner as in Experimental Example 3 and the results are shown in FIG. 5.
In addition, changes in the amount of related substances produced according to temperature and storage period are shown in FIGS. 6 and 7 for the compounds according to Examples 13 and 14.

[5] = open state, 1 day, Accelerated (40±2° C., 75±5% RH)
[6] = open state, 1 day, Long-term (25±2° C., 60±5% RH)
[7] = bottle packaging, 1 day, Accelerated
[8] = bottle packaging, 1 day, Long-term
[9] = bottle packaging, 1 day, Room temperature
[10] = bottle packaging, 1 day, Severe
[11] = bottle packaging, 3 days, Accelerated
[12] = bottle packaging, 3 days, Long-term
[13] = bottle packaging, 3 days, Room temperature
[14] = bottle packaging, 7 days, Accelerated
[15] = bottle packaging, 7 days, Long-term
[16] = bottle packaging, 7 days, Room temperature
[17] = polyethylene bottle packaging (silica gel added), Initial
[18] = open state, 7 days, Room temperature (20-25° C., 50% or less)

- increase in moisture content [1]: about 3%
- appearance ([2]; Initial, listed as Comp. Ex. 1): Foam
- appearance [2, 5]: Gel-like
- appearance [2, 6]: Gel-like
- appearance ([2]; open state, 1 day, Room temperature (20-25° C., 50% or less), listed as Comp. Ex. 1): Gel-like
- appearance ([2]; open state, 1 day, Severe (60±2° C.), listed as Comp. Ex. 1): Gel-like
- content of CG200745 [3, 7]: 89.1%
- content of CG200745 [3, 8]: 99.1%
- content of CG200745 [3, 9]: 99.3%
- content of CG200745 [3, 10]: 101.2%
- content of CG200745 [3, 11]: 84.0%
- content of CG200745 [3, 12]: 84.0%
- content of CG200745 [3, 13]: 99.5%
- content of CG200745 [3, 14]: 78.5%
- content of CG200745 [3, 15]: 78.5%
- content of CG200745 [3, 16]: 99.4%
- content of CG200745 ([3]; open state, 1 day, Accelerated, listed as Comp. Ex. 1): 92.3%
- content of CG200745 ([3]; open state, 1 day, Long-term, listed as Comp. Ex. 1): 99.9%
- content of CG200745 ([3]; open state, 1 day, Room temperature, listed as Comp. Ex. 1): 101.0%
- content of CG200745 ([3]; open state, 1 day, Severe, listed as Comp. Ex. 1): 101.1%
- content of CG200745 ([3]; open state, 3 days, Room temperature, listed as Comp. Ex. 1): 101.9%
- content of CG200745 ([3]; open state, 3 days, Severe, listed as Comp. Ex. 1): 97.2%
- content of CG200745 ([3]; open state, 7 days, Room temperature, listed as Comp. Ex. 1): 100.1%
- content of CG200745 ([3]; open state, 7 days, Severe, listed as Comp. Ex. 1): 89.1%
- content of CG200745 ([3]; open state, Initial, listed as Comp. Ex. 1): 98.9%
- content of CG200745 [3, 17]: 98.9%
- increase in the amount of related substances [4]: about 10%
SMILES: CN(C)CCCNC(=O)/C(=C/CCCCC(=O)NO)COc1cccc2ccccc12 [Comparative Example 1, (E)-N1-(3-(dimethylamino)propyl)-N8-hydroxy-2-((naphthalen-1-yloxy)methyl)-2-octenediamide, reference compound]
- change in appearance [2]: changed from a foam to a highly viscous liquid or gel

- increase in moisture content [1]: 2%
- appearance ([2]; Initial, listed as Ex. 13): Powder
- appearance [2, 5]: Gel-like
- appearance [2, 6]: Gel-like
- appearance ([2]; open state, 1 day, Room temperature (20-25° C., 50% or less), listed as Ex. 13): Powder
- appearance ([2]; open state, 1 day, Severe (60±2° C.), listed as Ex. 13): Powder
- appearance [2, 18]: Powder
- appearance ([2]; open state, 7 days, Severe (60±2° C.), listed as Ex. 13): Powder; also recorded: Discoloration
- content of CG200745 ([3]; open state, 1 day, Accelerated, listed as Ex. 13): 104.6%
- content of CG200745 ([3]; open state, 1 day, Long-term, listed as Ex. 13): 104.3%
- content of CG200745 ([3]; open state, 1 day, Room temperature, listed as Ex. 13): 103.4%
- content of CG200745 ([3]; open state, 1 day, Severe, listed as Ex. 13): 103.3%
- content of CG200745 ([3]; open state, 3 days, Accelerated): 102.3%
- content of CG200745 ([3]; open state, 3 days, Long-term): 102.6%
- content of CG200745 ([3]; open state, 3 days, Room temperature, listed as Ex. 13): 102.6%
- content of CG200745 ([3]; open state, 3 days, Severe, listed as Ex. 13): 99.6%
- content of CG200745 ([3]; open state, 7 days, Accelerated): 100.7%
- content of CG200745 ([3]; open state, 7 days, Long-term): 99.4%
- content of CG200745 ([3]; open state, 7 days, Room temperature, listed as Ex. 13): 100.0%
- content of CG200745 ([3]; open state, 7 days, Severe, listed as Ex. 13): 102.2%
- content of CG200745 ([3]; open state, Initial, listed as Ex. 13): 99.5%
- content on storage ([3]; under the room temperature condition): maintained at a certain level
- increase in the amount of related substances [4]: 0.05%
SMILES: CN(C)CCCNC(=O)/C(=C/CCCCC(=O)NO)COc1cccc2ccccc12 [Example 13, (E)-N1-(3-(dimethylamino)propyl)-N8-hydroxy-2-((naphthalen-1-yloxy)methyl)-2-octenediamide]
- amount of related substances produced according to storage temperature ([4]; FIG. 6): maintained within a certain range at a relatively low temperature

- increase in moisture content [1]: about 0.01%
- appearance ([2]; Initial): Powder
- appearance [2, 5]: Powder
- appearance [2, 6]: Powder
- appearance ([2]; open state, 1 day, Room temperature (20-25° C., 50% or less)): Powder
- appearance ([2]; open state, 1 day, Severe (60±2° C.)): Powder
- appearance ([2]; open state, 7 days, Accelerated (40±2° C., 75±5% RH)): Powder
- appearance ([2]; open state, 7 days, Long-term (25±2° C., 60±5% RH)): Powder
- appearance [2, 18]: Powder
- appearance ([2]; open state, 7 days, Severe (60±2° C.)): Powder
- content of CG200745 [3, 7]: 101.2%
- content of CG200745 [3, 8]: 103.5%
- content of CG200745 [3, 9]: 98.6%
- content of CG200745 [3, 10]: 101.6%
- content of CG200745 [3, 11]: 100.1%
- content of CG200745 [3, 12]: 99.9%
- content of CG200745 [3, 13]: 98.8%
- content of CG200745 ([3]; bottle packaging, 3 days, Severe): 100.4%
- content of CG200745 [3, 14]: 101.1%
- content of CG200745 [3, 15]: 100.9%
- content of CG200745 [3, 16]: 99.3%
- content of CG200745 ([3]; bottle packaging, 7 days, Severe): 101.4%
- content of CG200745 [3, 17]: 99.5%
- increase in the amount of related substances [4]: 0.02%
- amount of related substances produced ([4]; regardless of the storage temperature and period (FIG. 7)): about 0.22%
SMILES: CN(C)CCCNC(=O)/C(=C/CCCCC(=O)NO)COc1cccc2ccccc12.O=P(O)(O)O [Example 14, (E)-N1-(3-(dimethylamino)propyl)-N8-hydroxy-2-((naphthalen-1-yloxy)methyl)-2-octenediamide phosphate]
- change in appearance [2]: remained constant regardless of the condition
- content on storage ([3]; all packaging conditions, heating, humidity): kept constant regardless of packaging conditions, heating, and humidity
